Measured values published in the kinase profiling compilation of Christmann-Franck et al. (2016).

Assays:
Experiment in all cases: radiometric filter-binding kinase assay
[1] = molecular target: PAK7 (human) (UniProt Q9P286)
[2] = molecular target: NEK2 (human) (UniProt P51955)
[3] = molecular target: ERBB4 (human) (UniProt Q15303)
[4] = molecular target: CaMK1 (human) (UniProt Q14012)
[5] = molecular target: HIPK3 (human) (UniProt Q9H422)
[6] = molecular target: CDK2 CCNA2 (human) (UniProt P20248+P24941)
[7] = molecular target: MAPK15 (human) (UniProt Q8TD08)
[8] = molecular target: INSR (human) (UniProt P06213)
[9] = molecular target: EPHB2 (human) (UniProt P29323)
[10] = tested on: PRKAA1 or PRKAA2 (rat); settings: accession and sequence are those of the human protein
[11] = molecular target: SRPK1 (human) (UniProt Q96SB4)
[12] = molecular target: JAK2 JH1 JH2 (human) (UniProt O60674); settings: compound 1.0 µM
[13] = molecular target: MAP2K1 (human) (UniProt Q02750)
[14] = molecular target: PHKG1 (human) (UniProt Q16816)
[15] = molecular target: MARK1 (human) (UniProt Q9P0L2)
[16] = molecular target: MARK2 (human) (UniProt Q7KZI7)
[17] = molecular target: NUAK1 (human) (UniProt O60285)
[18] = molecular target: MINK1 (human) (UniProt Q8N4C8)
[19] = molecular target: MAPKAPK2 (human) (UniProt P49137)
[20] = molecular target: RIPK2 (human) (UniProt O43353)
[21] = molecular target: BTK (human) (UniProt Q06187)
[22] = molecular target: CAMKK2 (human) (UniProt Q96RR4); settings: compound 10.0 µM
[23] = molecular target: EPHA2 (human) (UniProt P29317)
[24] = molecular target: MST4 (human) (UniProt Q9P289)
[25] = molecular target: DYRK2 (human) (UniProt Q92630)
[26] = tested on: LCK (mouse); settings: accession and sequence are those of the human protein
[27] = molecular target: NEK6 (human) (UniProt Q9HC98)
[28] = molecular target: INSRR (human) (UniProt P14616)
[29] = molecular target: CSK (human) (UniProt P41240)
[30] = molecular target: MKNK1 (human) (UniProt Q9BUB5)
[31] = molecular target: RPS6KA5 KD1 KD2 (human) (UniProt O75582)
[32] = molecular target: BRSK1 (human) (UniProt Q8TDC3)
[33] = molecular target: PRKCA (human) (UniProt P17252)
[34] = molecular target: PRKACA (human) (UniProt P17612)
[35] = molecular target: EPHA4 (human) (UniProt P54764)

Sequence of DYRK2 (human) (Q92630 whole entry, looked up): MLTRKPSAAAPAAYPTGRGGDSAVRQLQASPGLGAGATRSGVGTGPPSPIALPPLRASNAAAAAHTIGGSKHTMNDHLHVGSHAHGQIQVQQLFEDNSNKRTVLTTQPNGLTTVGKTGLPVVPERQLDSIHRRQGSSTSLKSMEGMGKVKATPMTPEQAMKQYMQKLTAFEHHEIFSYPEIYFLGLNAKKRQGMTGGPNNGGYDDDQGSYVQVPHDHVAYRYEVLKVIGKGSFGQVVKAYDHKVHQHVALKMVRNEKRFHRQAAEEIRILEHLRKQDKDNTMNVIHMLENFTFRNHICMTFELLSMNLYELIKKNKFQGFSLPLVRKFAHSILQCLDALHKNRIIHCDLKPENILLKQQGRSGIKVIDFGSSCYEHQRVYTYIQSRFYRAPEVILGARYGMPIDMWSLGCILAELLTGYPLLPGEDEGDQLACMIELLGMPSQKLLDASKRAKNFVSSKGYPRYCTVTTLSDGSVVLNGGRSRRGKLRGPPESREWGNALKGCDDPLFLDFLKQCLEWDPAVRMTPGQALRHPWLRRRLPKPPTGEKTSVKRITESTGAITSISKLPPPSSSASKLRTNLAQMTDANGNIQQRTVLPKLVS
Sequence of NUAK1 (human) (O60285 whole entry, looked up): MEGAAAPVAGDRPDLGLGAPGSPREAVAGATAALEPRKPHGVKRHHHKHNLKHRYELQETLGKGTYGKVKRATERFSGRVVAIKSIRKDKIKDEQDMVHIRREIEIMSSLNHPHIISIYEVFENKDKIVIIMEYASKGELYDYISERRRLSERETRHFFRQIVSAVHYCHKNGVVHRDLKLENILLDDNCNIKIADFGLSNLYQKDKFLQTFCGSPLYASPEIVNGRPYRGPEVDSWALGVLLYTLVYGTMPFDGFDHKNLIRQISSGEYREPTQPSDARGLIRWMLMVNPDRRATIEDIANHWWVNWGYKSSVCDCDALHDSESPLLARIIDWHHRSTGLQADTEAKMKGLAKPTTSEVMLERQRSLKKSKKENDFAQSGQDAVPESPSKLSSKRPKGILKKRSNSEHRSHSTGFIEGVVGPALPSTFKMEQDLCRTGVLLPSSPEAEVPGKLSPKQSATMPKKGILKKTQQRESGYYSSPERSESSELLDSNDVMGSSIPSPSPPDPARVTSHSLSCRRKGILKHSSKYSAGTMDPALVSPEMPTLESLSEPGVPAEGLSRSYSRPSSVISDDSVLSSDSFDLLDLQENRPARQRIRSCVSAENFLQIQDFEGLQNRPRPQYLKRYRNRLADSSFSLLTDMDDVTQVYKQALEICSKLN
Sequence of CSK (human) (P41240 whole entry, looked up): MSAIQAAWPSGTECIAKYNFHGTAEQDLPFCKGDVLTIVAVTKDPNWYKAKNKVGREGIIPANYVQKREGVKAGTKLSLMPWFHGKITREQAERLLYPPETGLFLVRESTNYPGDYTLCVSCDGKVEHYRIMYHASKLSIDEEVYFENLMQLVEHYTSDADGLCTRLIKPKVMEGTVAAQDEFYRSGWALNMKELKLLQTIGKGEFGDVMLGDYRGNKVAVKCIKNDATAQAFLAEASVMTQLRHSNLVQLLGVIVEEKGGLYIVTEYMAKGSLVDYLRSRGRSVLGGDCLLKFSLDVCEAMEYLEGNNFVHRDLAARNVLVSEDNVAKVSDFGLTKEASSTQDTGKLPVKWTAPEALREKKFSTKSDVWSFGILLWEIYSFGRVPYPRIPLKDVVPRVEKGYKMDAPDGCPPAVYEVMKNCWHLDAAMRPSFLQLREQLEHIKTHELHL
Sequence of BTK (human) (Q06187 whole entry, looked up): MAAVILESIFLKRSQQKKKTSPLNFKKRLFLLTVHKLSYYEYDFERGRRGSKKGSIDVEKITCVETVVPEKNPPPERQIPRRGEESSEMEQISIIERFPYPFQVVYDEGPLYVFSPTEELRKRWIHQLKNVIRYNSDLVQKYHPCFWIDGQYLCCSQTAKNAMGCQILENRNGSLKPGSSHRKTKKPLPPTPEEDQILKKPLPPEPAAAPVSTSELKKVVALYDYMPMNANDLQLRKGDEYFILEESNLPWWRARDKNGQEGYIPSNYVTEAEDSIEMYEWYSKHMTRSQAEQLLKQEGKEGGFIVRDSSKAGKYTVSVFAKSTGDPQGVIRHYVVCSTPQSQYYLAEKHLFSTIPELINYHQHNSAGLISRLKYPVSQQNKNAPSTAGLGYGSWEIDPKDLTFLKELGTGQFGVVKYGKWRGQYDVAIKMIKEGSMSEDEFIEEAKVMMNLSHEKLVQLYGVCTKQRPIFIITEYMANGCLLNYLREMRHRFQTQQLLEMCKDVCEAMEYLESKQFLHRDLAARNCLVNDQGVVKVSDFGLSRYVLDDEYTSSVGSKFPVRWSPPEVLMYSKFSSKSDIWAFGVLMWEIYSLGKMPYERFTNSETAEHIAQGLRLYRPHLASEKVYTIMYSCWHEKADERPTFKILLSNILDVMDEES
Sequence of RIPK2 (human) (O43353 whole entry, looked up): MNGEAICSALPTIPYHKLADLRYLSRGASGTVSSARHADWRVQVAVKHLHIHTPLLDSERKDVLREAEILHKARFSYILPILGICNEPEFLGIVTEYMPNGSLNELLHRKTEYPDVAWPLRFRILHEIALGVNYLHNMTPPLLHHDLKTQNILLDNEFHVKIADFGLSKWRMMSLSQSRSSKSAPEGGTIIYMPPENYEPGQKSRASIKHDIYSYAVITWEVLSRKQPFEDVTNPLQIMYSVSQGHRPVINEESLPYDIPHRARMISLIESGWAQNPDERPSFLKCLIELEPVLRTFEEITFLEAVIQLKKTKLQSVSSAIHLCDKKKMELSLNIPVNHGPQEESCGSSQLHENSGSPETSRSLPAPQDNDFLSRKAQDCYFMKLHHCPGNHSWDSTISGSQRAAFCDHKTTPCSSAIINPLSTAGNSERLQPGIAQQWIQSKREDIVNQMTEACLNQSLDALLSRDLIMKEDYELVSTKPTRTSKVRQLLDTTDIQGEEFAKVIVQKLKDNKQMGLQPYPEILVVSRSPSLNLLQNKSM
Sequence of BRSK1 (human) (Q8TDC3 whole entry, looked up): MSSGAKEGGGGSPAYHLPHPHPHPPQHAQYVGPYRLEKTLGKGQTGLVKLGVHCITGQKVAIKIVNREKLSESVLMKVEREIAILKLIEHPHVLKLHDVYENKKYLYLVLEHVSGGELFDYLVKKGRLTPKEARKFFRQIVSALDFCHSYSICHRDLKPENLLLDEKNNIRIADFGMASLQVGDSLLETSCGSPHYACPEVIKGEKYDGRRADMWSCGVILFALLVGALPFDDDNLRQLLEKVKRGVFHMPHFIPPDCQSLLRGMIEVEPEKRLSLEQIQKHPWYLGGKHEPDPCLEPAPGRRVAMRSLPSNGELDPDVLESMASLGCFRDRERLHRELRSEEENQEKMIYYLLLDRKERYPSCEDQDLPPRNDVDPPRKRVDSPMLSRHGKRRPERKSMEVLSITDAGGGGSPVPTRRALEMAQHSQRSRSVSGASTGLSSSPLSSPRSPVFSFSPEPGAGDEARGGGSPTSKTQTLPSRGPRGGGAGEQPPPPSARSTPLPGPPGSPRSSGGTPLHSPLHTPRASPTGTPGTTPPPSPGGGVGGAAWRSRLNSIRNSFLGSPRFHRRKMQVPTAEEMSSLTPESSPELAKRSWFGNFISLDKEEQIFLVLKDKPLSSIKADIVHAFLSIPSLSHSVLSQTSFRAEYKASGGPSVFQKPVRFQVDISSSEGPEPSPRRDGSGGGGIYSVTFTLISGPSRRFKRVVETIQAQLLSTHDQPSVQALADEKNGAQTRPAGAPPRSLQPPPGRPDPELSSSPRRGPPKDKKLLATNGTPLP
Sequence of CaMK1 (human) (Q14012 whole entry, looked up): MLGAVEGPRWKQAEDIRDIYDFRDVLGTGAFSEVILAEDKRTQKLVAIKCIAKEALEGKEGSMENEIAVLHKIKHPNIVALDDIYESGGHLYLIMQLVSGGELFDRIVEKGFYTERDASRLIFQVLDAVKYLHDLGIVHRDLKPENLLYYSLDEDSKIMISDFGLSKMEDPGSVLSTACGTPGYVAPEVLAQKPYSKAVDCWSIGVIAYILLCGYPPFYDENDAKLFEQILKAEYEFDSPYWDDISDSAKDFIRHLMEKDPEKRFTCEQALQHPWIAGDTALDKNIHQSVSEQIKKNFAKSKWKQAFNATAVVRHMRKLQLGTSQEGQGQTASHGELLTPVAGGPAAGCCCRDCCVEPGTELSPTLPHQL

## NCC(=O)Nc1ccc(-n2nc(C(F)(F)F)cc2-c2ccc3c(ccc4ccccc43)c2)cc1
[1]; compound 1.0 µM
  residual activity: 87%
[1]; compound 10.0 µM
  residual activity: 107%
[2]; compound 1.0 µM
  residual activity: 96%
[2]; compound 10.0 µM
  residual activity: 92%
[3]; compound 1.0 µM
  residual activity: 106%
[3]; compound 10.0 µM
  residual activity: 104%
[4]; compound 1.0 µM
  residual activity: 109%
[4]; compound 10.0 µM
  residual activity: 21%
[5]; compound 1.0 µM
  residual activity: 94%
[5]; compound 10.0 µM
  residual activity: 64%
[6]; compound 1.0 µM
  residual activity: 95%
[6]; compound 10.0 µM
  residual activity: 95%
[7]; compound 1.0 µM
  residual activity: 79%
[7]; compound 10.0 µM
  residual activity: 75%
[8]; compound 1.0 µM
  residual activity: 98%
[8]; compound 10.0 µM
  residual activity: 94%
[9]; compound 1.0 µM
  residual activity: 82%
[9]; compound 10.0 µM
  residual activity: 91%
[10]; compound 1.0 µM
  residual activity: 99%
[10]; compound 10.0 µM
  residual activity: 105%
[11]; compound 1.0 µM
  residual activity: 94%
[11]; compound 10.0 µM
  residual activity: 80%
[12]
  residual activity: 101%
[13]; compound 1.0 µM
  residual activity: 108%
[13]; compound 10.0 µM
  residual activity: 107%
[14]; compound 1.0 µM
  residual activity: 79%
[14]; compound 10.0 µM
  residual activity: 72%
[15]; compound 1.0 µM
  residual activity: 87%
[15]; compound 10.0 µM
  residual activity: 79%
[16]; compound 1.0 µM
  residual activity: 94%
[16]; compound 10.0 µM
  residual activity: 89%
[17]; compound 1.0 µM
  residual activity: 85%
[17]; compound 10.0 µM
  residual activity: 61%
[18]; compound 1.0 µM
  residual activity: 78%
[18]; compound 10.0 µM
  residual activity: 47%
[19]; compound 1.0 µM
  residual activity: 91%
[19]; compound 10.0 µM
  residual activity: 95%
[20]; compound 1.0 µM
  residual activity: 93%
[20]; compound 10.0 µM
  residual activity: 81%
[21]; compound 1.0 µM
  residual activity: 98%
[21]; compound 10.0 µM
  residual activity: 96%
[22]
  residual activity: 115%
[23]; compound 1.0 µM
  residual activity: 92%
[23]; compound 10.0 µM
  residual activity: 94%
[24]; compound 1.0 µM
  residual activity: 80%
[24]; compound 10.0 µM
  residual activity: 72%
[25]; compound 1.0 µM
  residual activity: 89%
[25]; compound 10.0 µM
  residual activity: 121%
[26]; compound 1.0 µM
  residual activity: 84%
[26]; compound 10.0 µM
  residual activity: 247%
[27]; compound 1.0 µM
  residual activity: 115%
[27]; compound 10.0 µM
  residual activity: 63%
[28]; compound 1.0 µM
  residual activity: 91%
[28]; compound 10.0 µM
  residual activity: 75%
[29]; compound 1.0 µM
  residual activity: 97%
[29]; compound 10.0 µM
  residual activity: 85%
[30]; compound 1.0 µM
  residual activity: 86%
[30]; compound 10.0 µM
  residual activity: 83%
[31]; compound 1.0 µM
  residual activity: 110%
[31]; compound 10.0 µM
  residual activity: 46%
[32]; compound 1.0 µM
  residual activity: 83%
[32]; compound 10.0 µM
  residual activity: 89%
[33]; compound 1.0 µM
  residual activity: 94%
[33]; compound 10.0 µM
  residual activity: 90%
[34]; compound 1.0 µM
  residual activity: 100%
[34]; compound 10.0 µM
  residual activity: 93%
[35]; compound 1.0 µM
  residual activity: 80%
[35]; compound 10.0 µM
  residual activity: 91%
